# Experimental data reported in patent publication US20250263370A1 (Tay Therapeutics Limited, priority 2022, published 2025).
# Several values for one entry are separate records, joined by “and”; a condition that tells them apart may be missing. Equal entries are not always repeated. Where two headings read alike, the source gives them in different places.
# Legend:
# [1] = Plasma stability assay, rat plasma; format: in vitro ADME; settings: Method 1 (5 μM)
# Summary of the method: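 Compound at 5 μM final (0.5% DMSO) in one protocol or 10 μM (2% DMSO) in the other, incubated in plasma at 37° C.; samples taken 0–120 min and quenched with cold acetonitrile plus internal standard. LC-MS/MS gives percent remaining relative to the 0-min sample.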
# [2] = Plasma concentration of Example 101 in UUO rats by LC-MS/MS; format: in vivo, rat; settings: for concentration at 4 h: rat, plasma, po, 30 mg/kg
# Excerpt: Serum for blood biochemistry analysis was collected into centrifuge tubes without coagulant four hours after final dosing. Blood plasma samples from group 3 was collected into tubes with K2EDTA four hours after final dosing. At the conclusion of the study (end of the 14-day period), animals were euthanized. Kidney tissue was collected four hours after final dosing. Ligated side kidney was divided into three copies ⅓ fix into 10% formalin for H&E analysis, ⅓ into RNA for PCR analysis of tissue biomarkers Col1a1, TGF-b1, MCP-1, IL-1b, IL-6, IL-17, TNF-a, and Timp1, and ⅓ for hydroxyproline assay analyzed by ELISA. RNA was extracted from tissue using the RNeasy mini kit (Qiagen). RNA concentration was measured using a NanoDrop One Spectrophotometer (ThermoFisher) and converted to cDNA using a High-Capacity RNA-to-cDNA kit (Invitrogen). RT-PCR was performed to measure levels of mRNA of different targets using TaqMan® Gene Expression Master Mix and TaqMan® probe/primer sets on a QuantStudio 6, Real-Time PCR System (ThermoFisher). Fold change in target gene expression was determined using the ΔΔCt method.
# Samples were analyzed on a Raptor Biphenyl 2.7 μm 50×2.1 mm column. Solution A in the mobile phase was 95% water (0.1% formic acid) and solution B was 95% acetonitrile in water (0.1% formic acid), injection volume was 20 μL, and flow rate was 0.5 mL/min.
# To prepare samples for analysis, serial concentrations were prepared by diluting the stock solution of analyte with a 50% acetonitrile in water solution. 5 μL working solutions (5, 10, 20, 50, 100, 500, 1000, 5000, and 10000 ng/mL) were added to 50 μL of the blank SD rat plasma to achieve calibration standards of −0.5 to 1000 ng/mL (0.5, 1, 2, 5, 10, 50, 100, 500, and 1000 ng/mL) in a total volume of 55 μL. […]
# 55 μL of standards, 55 μL of QC samples and 55 μL of unknown samples (50 μL of unknown rat plasma with 5 μL of blank solution) were added to 200 μL of acetonitrile containing IS mixture for precipitating protein respectively. […] 20 μL of diluted supernatant was injected into the LC/MS/MS system for quantitative analysis.
# [3] = Intrinsic clearance in liver microsomes, mouse; format: in vitro ADME; settings: pH 7.4, Method 1, read-out: Half-Life (T1/2) (min), Mouse
# Summary of the method: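 Compound at 1 μM (0.1–1% DMSO) incubated at 37 °C with mouse or rat liver microsomes (0.5 mg/mL protein) and 1 mM NADPH in PBS pH 7.4; samples taken up to 60 min and quenched in cold acetonitrile. LC-MS/MS of percent remaining gave half-life and CLint; no-NADPH controls run.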
structure (smiles),measurement,setting,value
"CNC(=O)c1[nH]c(C(=O)NC2CCC2)cc1O[C@@H](C)c1ccccc1 (stereo in doubt) [Example 101, N^5-cyclobutyl-N^2-methyl-3-(1-phenylethoxy)-1H-pyrrole-2,5-dicarboxamide]","Plasma Stability (% remaining at 120 minutes), Rat",[1],61%
same,Plasma concentration of Example 101,"[2]; male SD rats, oral, 4 h after final treatment, individual test subjects",485 ng/mL and 959 ng/mL and 760 ng/mL and 859 ng/mL and 906 ng/mL and 1160 ng/mL and 665 ng/mL and 941 ng/mL
same,concentration at 4 h,"[2]; male, SD, Mean plasma concentration of Example 101, male SD rats, oral, 4 h after final treatment, mean of 8 subjects",846 ng/mL
same,concentration at 4 h,"[2]; UUO rats, 30 mg/kg oral, four hours after final treatment, read-out: mean plasma concentration",846 ng/mL
same,half-life at 1 μM,[3],27 min
